# According to patent US20150238444A1, “CHLORHEXIDINE GLUCONATE SOLUBILIZED IN A HYDROPHOBIC MONOACYLGLYCERIDE” (3M INNOVATIVE PROPERTIES COMPANY, priority 2012, published 2015):
# Assay: Screening of CHG solubility in hydrophobic vehicles after vacuum-stripping water
# Type: physicochemical
# Protocol: General Method for Vacuum-Stripping Water from CHG Solutions. A 25 g sample of CHG/water solution (20 wt. CHG) was added to 45 g of the hydrophobic monoacylglyceride of interest in a 200 mL round bottom flask. The flask was put in a 60° C. oil bath and stirred with a magnetic stir bar. Vacuum (less than 3.3 kilopascal (25 Torr)) was pulled until bubbling stopped and the weight had closely approached the theoretical value of 50 grams—usually 30-90 minutes. […] In those cases, after nearly all the water was removed, additional hydrophobic monoacylglyceride was added to bring the final weight to 50 grams.
# Screening tests were conducted to determine the solubility of CHG in a variety of hydrophobic vehicles. Samples were prepared by mixing CHG (20 wt. % solution in water, obtained from Xttrium Laboratories Inc., Chicago, Ill.) with the vehicle and vacuum stripping in accordance with the General Method for Vacuum-Stripping Water from CHG Solutions. The resulting concentration of CHG and residual water were determined. Also, the final state of the solution was qualitatively evaluated to determine whether the mixture was transparent and apparently homogenous, or clearly inhomogeneous.
# [1] = after vacuum stripping of water from CHG/vehicle mixture
Compound,Experimental Solubility with CHG,"Final State (CHG 10 wt. %, 23-60° C.)",Water wt. % (residual water) [1] [% wt. %],other results
CC(C)CCCCCCCCCCCCCCC(=O)OCC(O)CO (stereo not drawn) [Glyceryl monoisostearate],Yes,Homogeneous,–,"Final State (CHG 16 wt. %, 23-60° C.): Homogeneous; Final State (CHG 20 wt. %, 60° C.): Homogeneous"
CCCCCCCCCCCC(=O)OCC(O)CO (stereo not drawn) [Glyceryl monolaurate],Yes,–,0.7,"Final State (CHG 20 wt. %, 75° C.): Homogeneous"
CCCCCCCC/C=C\CCCCCCCC(=O)OCC(O)CO (stereo not drawn) [Glyceryl monooleate],Yes,Homogeneous,0.3,–

# The next lines start with results.
Experimental Solubility with CHG,"Final State (CHG 10 wt. %, 23-60° C.)",Water wt. % (residual water) [1] [% wt. %],Compound,other results
Yes,–,–,CCCCCCCC(=O)OCC(O)CO (stereo not drawn) [Glyceryl monocaprylate],"Final State (CHG 20 wt. %, 23-60° C.): Homogeneous"
Yes,–,0.2,CCCCCCCCCCCCCCCCCC(=O)OCC(O)CO (stereo not drawn) [Glyceryl monostearate],"Final State (CHG 10 wt. %, 80° C.): Homogeneous"
No,Inhomogeneous,–,Polyglycerol-2-Triisostearate,CHG wt. % (resulting concentration of CHG in the vehicle) [1]: 10% wt. %
No,Inhomogeneous,–,Trigyceryl diisostearate,"Final State (CHG 1 wt. %, 23-60° C.): Inhomogeneous"
